Measurements reported in US7601756B2, “Method of treatment for irritable bowel syndrome” (Snowden Pharmaceuticals, LLC, priority 2003, dated 2009).

Columns and labels:
[1] = system: irritable bowel syndrome (IBS) symptoms; assay: Patient subjective evaluation of IBS symptoms before and after treatment (case studies); type: in vivo, human
Experimental: Each patient subjectively evaluated his or her symptoms both before and after treatment on a scale from 0 to 10 with 0 representing the absence of symptoms and 10 indicating the most severe symptoms. […] Patient 2 also was treated with Gemfibrozil 600 mg twice daily. […] Patient 3 was originally treated with Gemfibrozil 600 mg twice daily.

[2] = system: HDL (high density lipoprotein) level; assay: HDL level of Patient 1 after treatment; type: in vivo, human; conditions: Gemfibrozil 600 mg twice a day, later testing
Excerpt: Patient 1 suffered from a variety of conditions including diabetes, post traumatic attention deficit disorder, and irritable bowel syndrome. […] However, upon resuming the Gemfibrozil treatment, the levels were again reduced.

[3] = Patient 1, Gemfibrozil 600 mg twice a day, within a day, scale 0 to 10, before 8
[4] = Patient 2, Gemfibrozil 600 mg twice daily, after 1.5 days, scale 0 to 10, before 0
[5] = Patient 3, Gemfibrozil 600 mg twice daily, after 2 days, scale 0 to 10, before 7

Cc1ccc(C)c(OCCCC(C)(C)C(=O)O)c1 [Gemfibrozil, 5-(2,5-dimethylphenoxy)-2,2-dimethylpentanoic acid]
Change of evaluation of IBS symptoms ([1]; Patient 1, Gemfibrozil 600 mg twice a day, within a day): significant improvement | Patient evaluation of symptoms: Gas (After) ([1]; Patient 1, Gemfibrozil 600 mg twice a day, within a day, scale 0 to 10 (0 absence, 10 most severe), before 4): 1 | Patient evaluation of symptoms: Constipation (After) ([1]; Patient 1, Gemfibrozil 600 mg twice a day, within a day, scale 0 to 10, before 0): 0 | Patient evaluation of symptoms: Overall (After) ([1]; Patient 1, Gemfibrozil 600 mg twice a day, within a day, scale 0 to 10, before 6.5): 1 | Patient evaluation of symptoms: Cramps/Pain (After) [1, 3]: 1 | Patient evaluation of symptoms: Mucus (After) [1, 3]: 2 | Patient evaluation of symptoms: Diarrhea (After) ([1]; Patient 1, Gemfibrozil 600 mg twice a day, within a day, scale 0 to 10, before 9): 1 | IBS symptom levels upon resuming treatment ([1]; Patient 1, Gemfibrozil treatment resumed): again reduced | IBS symptoms on discontinued use ([1]; Patient 1, use of Gemfibrozil discontinued): returned to the before levels | Side effect experienced under treatment ([1]; Patient 2, Gemfibrozil 600 mg twice daily): occasional constipation | IBS symptoms after treatment ([1]; Patient 2, Gemfibrozil 600 mg twice daily, after 1.5 days of treatment): virtually disappeared | Patient evaluation of symptoms: Gas (After) ([1]; Patient 2, Gemfibrozil 600 mg twice daily, after 1.5 days of treatment, scale 0 to 10, before 4.5): 0 | Patient evaluation of symptoms: Constipation (After) [1, 4]: 3 | Patient evaluation of symptoms: Mucus (After) [1, 4]: 0 | Patient evaluation of symptoms: Cramps/Pain (After) ([1]; Patient 2, Gemfibrozil 600 mg twice daily, after 1.5 days, scale 0 to 10, before 5): 0 | Patient evaluation of symptoms: Diarrhea (After) ([1]; Patient 2, Gemfibrozil 600 mg twice daily, after 1.5 days, scale 0 to 10, before 8.5): 0 | Patient evaluation of symptoms: Overall (After) ([1]; Patient 2, Gemfibrozil 600 mg twice daily, after 1.5 days, scale 0 to 10, before 9): 1 | IBS symptoms after treatment ([1]; Patient 3, Gemfibrozil 600 mg twice daily, after 2 days of treatment): greatly improved | Patient evaluation of symptoms: Gas (After) ([1]; Patient 3, Gemfibrozil 600 mg twice daily, after 2 days of treatment, scale 0 to 10, before 3): 1 | Patient evaluation of symptoms: Constipation (After) ([1]; Patient 3, Gemfibrozil 600 mg twice daily, after 2 days, scale 0 to 10, before 0): 0 | Patient evaluation of symptoms: Mucus (After) ([1]; Patient 3, Gemfibrozil 600 mg twice daily, after 2 days, scale 0 to 10, before 3): 0 | Patient evaluation of symptoms: Cramps/Pain (After) [1, 5]: 2 | Patient evaluation of symptoms: Overall (After) [1, 5]: 2 | Patient evaluation of symptoms: Diarrhea (After) ([1]; Patient 3, Gemfibrozil 600 mg twice daily, after 2 days, scale 0 to 10, before 9): 3 | HDL level after treatment [2]: increased

CC(C)OC(=O)C(C)(C)Oc1ccc(C(=O)c2ccc(Cl)cc2)cc1 [micronized fenofibrate, 2-(4-(4-chlorobenzoyl)phenoxy)-2-methyl-propanoic acid 1-methyl ethyl ester]
Patient evaluation of symptoms in all categories ([1]; Patient 3, micronized fenofibrate 200 mg daily, after discontinuing Gemfibrozil, scale 0 to 10): 0
